Reference: patent US12357641B2, “Identification of oleanolic acid and plant extract for glucose-6-phosphate dehydrogenase-related disorders including Bag3opathy” (Hong Kong Baptist University, priority 2022, dated 2025)

Legend:
G6PD [1] = assay: Oleanolic acid treatment in normal mice: G6PD protein by ELISA in serum, heart muscle and skeletal muscle; type: in vivo, mouse; details: for G6PD protein in heart muscle: control 0.36±0.26 ng/mg; for G6PD protein level in serum: control 1.79±0.99 ng/mL
Description: BAG3 P209-KI mice were reproduced by mating between the P209L/+ male and female mice. All mice were maintained with free access to food and water in plastic cages at 22±2° C. and kept on a 12-h light/dark cycle. Animal welfare and experimental procedures were carried out in accordance with the related ethical regulations of Yunnan Minzu University. […] Heart muscle and skeletal muscle samples were obtained after cardiac perfusion with cold PBS. Muscle tissues were lysed into homogenate in ice-cold lysis buffer (150 mM NaCl, 50 mM Tris, pH7.5, 1% NP-40, 0.1% sodium deoxycholate) plus 1 mM PMSF. Samples were then sonicated on ice and centrifuged at 10,000 g for 5 min. The concentration of G6PD in serum, heart muscle, and skeletal muscle were determined by G6PD Elisa Kit (Catalog #: SEA716Mu, Cloud-Clone Corp. USA) following the manufacturer's instruction. The plate was read at 450 nm by the microplate reader (iMark, Biorad, USA). The concentration of the total protein from tissue samples was determined by the spectrophotometer (NanoDrop One, Thermo Scientific, USA).
Seventeen normal male C57BL/6 mice, 6-8 weeks of age, were purchased from Hunan SJA Laboratory Animal Co., Ltd (Changsha, China). They were maintained with free access to food and water in plastic cages at 22±2° C. and kept on a 12-h light/dark cycle. Animal welfare and experimental procedures were carried out in accordance with the related ethical regulations of Yunnan Minzu University. Mice were randomly divided into one control group (n=6) and two dug treatment groups (n=5, 6). Oleanolic acid was suspended in 0.5% carboxymethylcellulose sodium (CMC-Na) solution with the concentration of 10 and 2.5 mg/mL. In the control and drug treatment groups, 0.5% CMC-Na and oleanolic acid (50, 200 mg/kg/day) was given orally for 10 days, respectively. On the 11th day, mice were sacrificed, and the serum and tissue samples were prepared and detected as the method described previously.

G6PD [2] = assay: Oleanolic acid treatment in Bag3opathy patient: serum G6PD protein by ELISA; type: in vivo, human; details: oral capsules 180 mg/day for three months, before treatment 0.09 ng/mL, normal girls 7.25±9.38 ng/mL
Description: The concentration of G6P in serum was determined by High Sensitivity G6P Assay Kit (Catalog #: K687-100, BioVision, Inc. USA) following the manufacturer's instruction. Briefly, a volume of 200 μL of samples was deproteinized with 10 kDa MWCO spin filter prior to the reaction. After adding 50 μL of the appropriate reaction mix into each 50 μL of filtrate, the reaction was incubated for 5 min at 37° C. and protected from light. Finally, the concentration of G6P was calculated according the fluorescence intensity (λex=535/λem=587) measured by fluorometer (EnVision 2104 Multilabel Reader, PerkinElmer, USA). The serum levels of G6PD (SEA716Hu, Cloud-Clone Corp), GPI, catalase (CAT), thioredoxin (TXN), and superoxide dismutase 1 (SOD1) were measured by Elisa Kits purchased from Cloud-Clone Crop Inc. (USA). Serum samples were diluted 100 folds in PBS for measurements of CAT and TXN, and were diluted 800 folds for SOD1 test. The activity of PGM was determined by Colorimetric Assay Kit from BioVision (Inc. USA). Samples were prepared and measured at 450 nm by Elisa reader (Benchmark Plus, BioRad, USA) depending on the manufacturer's instructions.
The Bag3opathy patient (body weight of patient: 40 kg) was orally administrated with Chinese medicine supplements containing oleanolic acid (180 mg per day) to evaluate the effects of treatment on BAG3 associated MFM for 3 months. […]

[3] = test system: creatine kinase-MB (CK-MB); assay: Oleanolic acid treatment in Bag3opathy patient: creatine kinase-MB (cardiac marker) in blood; type: in vivo, human; details: oral capsules 180 mg/day for three months, before treatment 24 U/L
Description: The Bag3opathy patient (body weight of patient: 40 kg) was orally administrated with Chinese medicine supplements containing oleanolic acid (180 mg per day) to evaluate the effects of treatment on BAG3 associated MFM for 3 months. 3 mL serum was collected for analysis before and after the treatment. The trial was approved the Ethics Committee of Hong Kong Baptist University (HASC/15-16/0268) according to the principles of the Declaration of Helsinki, and obtained the consent form.

## CC1(C)CC[C@]2(C(=O)O)CC[C@]3(C)C(=CC[C@@H]4[C@@]5(C)CC[C@H](O)C(C)(C)[C@@H]5CC[C@]43C)[C@@H]2C1 [oleanolic acid, Oleanolic acid]
G6PD [1]; oral 50 mg/kg daily for ten days, control 0.11±0.04 ng/mg, p=0.035
  G6PD protein in skeletal muscle: 0.19 ± 0.04 ng/mg
G6PD [1]; oral 50 mg/kg daily for ten days, p=0.36
  G6PD protein in heart muscle: 0.54 ± 0.32 ng/mg
G6PD [1]; oral 50 mg/kg daily for ten days, p=0.140
  G6PD protein level in serum: 3.74 ± 1.91 ng/mL
G6PD [1]; oral 200 mg/kg daily for ten days, p=0.011
  G6PD protein in heart muscle: 0.93 ± 0.43 ng/mg
G6PD [1]; oral 200 mg/kg daily for ten days, p=0.049
  G6PD protein level in serum: 4.47 ± 3.07 ng/mL
G6PD [2]
  serum G6PD protein after treatment: 2.43 ng/mL
[3]
  creatine kinase-MB (CK-MB) after treatment: 16 U/L
